PubChem BioAssay AID248 (DTP/NCI, 2004)
Several values for one entry are separate records, joined by “and”; a condition that tells them apart may be missing. Equal values may be shown once. Toxic doses and inconclusive results are not listed. No stated cut-off is given here; in the data, active means T/C of 150% or more; inactive means T/C below 125%.

System: L1210 leukemia ip in BDF1 mice, survival T/C
Test: NCI In Vivo Anticancer Drug Screen. Data for tumor model L1210 Leukemia (intraperitoneal) in B6D2F1 (BDF1) mice
Conditions: endpoint: mean survival time, higher = longer survival
How it was run: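 Survival endpoint. Drug-treated group vs vehicle group, expressed as T divided by C. Tumor passaged by transplantation.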

[1] = dose: 100.0 mg/kg/injection, schedule: Q04DX003 (ip), vehicle: Klucel (hydroxypropylcellulose) (HPC)
[2] = dose: 200.0 mg/kg/injection, schedule: Q04DX003 (ip), vehicle: Klucel (hydroxypropylcellulose) (HPC)
[3] = dose: 400.0 mg/kg/injection, schedule: Q04DX003 (ip), vehicle: Klucel (hydroxypropylcellulose) (HPC)
[4] = dose: 100.0 mg/kg/injection, schedule: Q01DX009 (ip), vehicle: Klucel (hydroxypropylcellulose) (HPC)
[5] = dose: 200.0 mg/kg/injection, schedule: Q01DX009 (ip), vehicle: Klucel (hydroxypropylcellulose) (HPC)
[6] = dose: 400.0 mg/kg/injection, schedule: Q01DX009 (ip), vehicle: Klucel (hydroxypropylcellulose) (HPC)
[7] = dose: 100.0 mg/kg/injection, schedule: Q01DX009 (ip), vehicle: saline with Tween-80
[8] = dose: 100.0 mg/kg/injection, schedule: Q04DX003 (ip), vehicle: saline with Tween-80
[9] = dose: 200.0 mg/kg/injection, schedule: Q01DX009 (ip), vehicle: saline with Tween-80
[10] = dose: 200.0 mg/kg/injection, schedule: Q04DX003 (ip), vehicle: saline with Tween-80
[11] = dose: 400.0 mg/kg/injection, schedule: Q01DX009 (ip), vehicle: saline with Tween-80
[12] = dose: 400.0 mg/kg/injection, schedule: Q04DX003 (ip), vehicle: saline with Tween-80
[13] = dose: 100.0 mg/kg/injection, schedule: Q01DX001 (ip), vehicle: carboxymethylcellulose (CMC)
[14] = dose: 200.0 mg/kg/injection, schedule: Q01DX001 (ip), vehicle: carboxymethylcellulose (CMC)
[15] = dose: 400.0 mg/kg/injection, schedule: Q01DX001 (ip), vehicle: carboxymethylcellulose (CMC)
[16] = dose: 100.0 mg/kg/injection, schedule: Q01DX001 (ip), vehicle: saline
[17] = dose: 100.0 mg/kg/injection, schedule: Q01DX001 (sc), vehicle: steriod suspending solution
[18] = dose: 200.0 mg/kg/injection, schedule: Q01DX001 (sc), vehicle: steriod suspending solution
[19] = dose: 400.0 mg/kg/injection, schedule: Q01DX001 (sc), vehicle: steriod suspending solution
[20] = dose: 200.0 mg/kg/injection, schedule: Q01DX001 (ip), vehicle: saline
[21] = dose: 400.0 mg/kg/injection, schedule: Q01DX001 (ip), vehicle: saline

Measured: T/C

CC1=CC(=O)C(C(=O)CC(O)(C(F)(F)F)C(F)(F)F)C(=O)O1 (stereo unspecified)
inactive: dose: 12.5 mg/kg/injection, schedule: Q01DX009 (ip), vehicle: saline with Tween-80 92 % of control | dose: 25.0 mg/kg/injection, schedule: Q01DX009 (ip), vehicle: saline with Tween-80 103 % of control | dose: 50.0 mg/kg/injection, schedule: Q01DX009 (ip), vehicle: saline with Tween-80 88 % of control

O=S(=O)(N/C(=C(\NS(=O)(=O)c1ccccc1)c1ccccc1)c1ccccc1)c1ccccc1
inactive: [1] 97 % of control | [2] 95 % of control | [3] 92 % of control

O=C(c1ccc([N+](=O)[O-])cc1)C(Br)C(Br)c1ccncc1 (stereo unspecified)
inactive: [4] 89 % of control | [5] 89 % of control | [6] 93 % of control

CCOC(=O)c1cc(OCC)nc(SC)n1
inactive: dose: 25.0 mg/kg/injection, schedule: Q01DX Z (ip), vehicle: methylcellulose (MC) 86 % of control | dose: 50.0 mg/kg/injection, schedule: Q01DX Z (ip), vehicle: methylcellulose (MC) 100 % of control

CN=C1N[N+]2=CCSCC2(C)S1 (stereo unspecified)
inactive: dose: 0.2 mg/kg/injection, schedule: Q03HX024 (ip), vehicle: saline 90 % of control | dose: 0.39 mg/kg/injection, schedule: Q03HX024 (ip), vehicle: saline 98 % of control | dose: 0.78 mg/kg/injection, schedule: Q03HX024 (ip), vehicle: saline 98 % of control | dose: 1.56 mg/kg/injection, schedule: Q03HX024 (ip), vehicle: saline 95 % of control | dose: 3.13 mg/kg/injection, schedule: Q03HX024 (ip), vehicle: saline 105 % of control

CCCCCCCC(=O)c1ccc(NC(C)=O)cc1
inactive: [4] 103 % of control | [1] 99 % of control | [5] 95 % of control | [2] 92 % of control | [6] 102 % of control | [3] 100 % of control

CCCCOc1ccc(OC(=O)Nc2cc(Cl)ccc2OC)cc1
inactive: [4] 105 % of control | [1] 96 % of control | [5] 97 % of control | [2] 97 % of control | [6] 113 % of control | [3] 97 % of control

CCCNC(=O)Nc1ccc(C)cc1C
inactive: [7] 96 % of control | [8] 97 % of control | [9] 97 % of control | [10] 97 % of control | [11] 100 % of control | [12] 101 % of control

Cc1ccc(C(=O)O)cn1
inactive: dose: 100.0 mg/kg/injection, schedule: Q01DX009 (ip), vehicle: saline 97 % of control | dose: 100.0 mg/kg/injection, schedule: Q04DX003 (ip), vehicle: saline 97 % of control | dose: 200.0 mg/kg/injection, schedule: Q01DX009 (ip), vehicle: saline 98 % of control | dose: 200.0 mg/kg/injection, schedule: Q04DX003 (ip), vehicle: saline 113 % of control | dose: 400.0 mg/kg/injection, schedule: Q01DX009 (ip), vehicle: saline 97 % of control | dose: 400.0 mg/kg/injection, schedule: Q04DX003 (ip), vehicle: saline 105 % of control

O=C(N/N=C/c1cc(Cl)ccc1O)C(O)(c1ccccc1)c1ccccc1
inactive: [13] 106 % of control | [14] 97 % of control | [15] 101 % of control

CN(C)C(=S)[S][Pb]([c]1ccccc1)([c]1ccccc1)[c]1ccccc1
inactive: dose: 5.0 mg/kg/injection, schedule: Q01DX001 (ip), vehicle: steriod suspending solution 104 % of control | dose: 10.0 mg/kg/injection, schedule: Q01DX001 (ip), vehicle: steriod suspending solution 100 % of control | dose: 20.0 mg/kg/injection, schedule: Q01DX001 (ip), vehicle: steriod suspending solution 105 % of control | dose: 40.0 mg/kg/injection, schedule: Q01DX001 (ip), vehicle: steriod suspending solution 96 % of control | dose: 80.0 mg/kg/injection, schedule: Q01DX001 (ip), vehicle: steriod suspending solution 102 % of control

C=CC[Si](Cl)(Cl)Cl
inactive: dose: 50.0 mg/kg/injection, schedule: Q01DX001 (ip), vehicle: saline 93 % of control | [16] 98 % of control

OCc1cccc2c1CCC2
inactive: dose: 12.5 mg/kg/injection, schedule: Q01DX001 (ip), vehicle: Klucel (hydroxypropylcellulose) (HPC) 100 % of control | dose: 12.5 mg/kg/injection, schedule: Q01DX009 (ip), vehicle: Klucel (hydroxypropylcellulose) (HPC) 104 % of control | dose: 25.0 mg/kg/injection, schedule: Q01DX001 (ip), vehicle: Klucel (hydroxypropylcellulose) (HPC) 100 % of control | dose: 25.0 mg/kg/injection, schedule: Q01DX009 (ip), vehicle: Klucel (hydroxypropylcellulose) (HPC) 96 % of control | dose: 50.0 mg/kg/injection, schedule: Q01DX001 (ip), vehicle: Klucel (hydroxypropylcellulose) (HPC) 102 % of control | dose: 50.0 mg/kg/injection, schedule: Q01DX009 (ip), vehicle: Klucel (hydroxypropylcellulose) (HPC) 94 % of control

CN(C)/N=C/c1ccc[n+](C)c1
inactive: dose: 6.25 mg/kg/injection, schedule: Q01DX009 (ip), vehicle: saline 113 % of control | dose: 12.5 mg/kg/injection, schedule: Q01DX009 (ip), vehicle: saline 109 % of control | dose: 25.0 mg/kg/injection, schedule: Q01DX009 (ip), vehicle: saline 98 % of control and 110 % of control

CCOC(=O)/C=C/SCCCC(=O)O
inactive: [7] 96 % of control | [9] 88 % of control

Cc1cccc2c3c([nH]c12)CCSC3
inactive: [8] 108 % of control | [10] 105 % of control | [12] 111 % of control

CNC(C)C1CCC2C3CC=C4CC(O)CCC4(C)C3CCC12C (stereo unspecified)
inactive: [17] 104 % of control | [18] 87 % of control | [19] 94 % of control

CC(=O)OCC(=O)[C@@]1(O)CC[C@H]2[C@@H]3C[C@H](C)C4=CC(=O)C=C[C@]4(C)[C@@]3(Br)[C@@H](O)C[C@@]21C
inactive: dose: 50.0 mg/kg/injection, schedule: Q01DX001 (sc), vehicle: steriod suspending solution 101 % of control | [17] 109 % of control | [18] 106 % of control | [19] 104 % of control

Cc1ccc(NC(=O)c2ccc([N+](=O)[O-])cc2)c(C)c1
inactive: dose: 100.0 mg/kg/injection, schedule: Q01DX001 (ip), vehicle: Klucel (hydroxypropylcellulose) (HPC) 91 % of control | [7] 96 % of control | [8] 94 % of control | dose: 200.0 mg/kg/injection, schedule: Q01DX001 (ip), vehicle: Klucel (hydroxypropylcellulose) (HPC) 94 % of control | [9] 102 % of control | [10] 96 % of control | dose: 400.0 mg/kg/injection, schedule: Q01DX001 (ip), vehicle: Klucel (hydroxypropylcellulose) (HPC) 112 % of control | [11] 96 % of control | [12] 99 % of control

O=C(OC1CCC/C=C\CCCC1)c1ccc([N+](=O)[O-])cc1 (stereo unspecified)
inactive: [16] 93 % of control | [20] 98 % of control | [21] 96 % of control

Nc1cccc2c1[nH]c(=O)c1ccccc12
inactive: [13] 95 % of control | [14] 97 % of control | [15] 97 % of control

CCOC(=O)c1ccc(NC(=O)CCCCCCCCC(=O)Nc2ccc(C(=O)OCC)cc2)cc1
inactive: dose: 100.0 mg/kg/injection, schedule: Q04DX002 (ip), vehicle: Klucel (hydroxypropylcellulose) (HPC) 91 % of control | dose: 200.0 mg/kg/injection, schedule: Q04DX002 (ip), vehicle: Klucel (hydroxypropylcellulose) (HPC) 102 % of control | dose: 400.0 mg/kg/injection, schedule: Q04DX002 (ip), vehicle: Klucel (hydroxypropylcellulose) (HPC) 95 % of control

CCCCCC(C)O[Si](C)Cc1ccccc1 (stereo unspecified)
inactive: [8] 95 % of control | [10] 97 % of control | [12] 90 % of control

CCN(Cc1ccccc1)c1nn[nH]n1
inactive: [16] 98 % of control | [20] 102 % of control | [21] 102 % of control

CCC/C=C(\C)CCCC
inactive: [16] 97 % of control | [20] 99 % of control | [21] 95 % of control

O=C(OCC1CC1)c1cc([N+](=O)[O-])cc([N+](=O)[O-])c1
inactive: dose: 25.0 mg/kg/injection, schedule: Q04DX003 (ip), vehicle: saline with Tween-80 108 % of control | dose: 50.0 mg/kg/injection, schedule: Q04DX003 (ip), vehicle: saline with Tween-80 106 % of control | [8] 101 % of control
